Values quoted from earlier work as cited in patent US20250241904A1, “COMPOSITION AND METHOD FOR PREVENTION AND TREATMENT OF CUTANEOUS RADIATION INJURY” (Rythera Therapeutics, Inc., priority 2022, published 2025).

Tests used:
mice = conditions: topical
[1] = test system: radiation proctopathy or proctitis; conditions: in vivo

Compound: CN[C@H]1CC[C@@H](c2ccc(Cl)c(Cl)c2)c2ccccc21 [sertraline]
- itch-evoked scratching (mice): significant itch-evoked scratching

Compound: O=C1O[C@H]([C@@H](O)CO)C(O)=C1O [Vitamin C]
- results of irradiated breast tissue (radiation dermatitis; in vivo): without improvement

Compound: Sucralfate
- treating radiation proctopathy or proctitis [1]: ineffective

Compound: O=[N+]([O-])OCC(CO[N+](=O)[O-])O[N+](=O)[O-] [nitroglycerin]
- treating radiation proctopathy or proctitis [1]: ineffective

Compound: NCCCNCCSP(=O)(O)O [amifostine]
- dermato-cytoprotective effects (radiation dermatitis; retrospective analysis): significant dermato-cytoprotective effects

Compound: Nc1ccc(O)c(C(=O)O)c1 [5-ASA, 5-aminosalicylic acid]
- treating radiation proctopathy or proctitis [1]: unsuccessful
